This is an account of results in patent publication US20230117831A1, “MULTI-FUNCTIONAL CHIMERIC MOLECULES” (THE BROAD INSTITUTE, INC., priority 2020, published 2023).

The target in one assay is BRD4 (AMPK) (Homo sapiens, UniProt O60885+Q13131+Q9Y478). Kind of assay: in vitro kinase assay, BRD4 phosphorylation by AMPK with/without AMP. The assay is classed as biochemical. The note with it: 1 uM compound, with and without 100 uM AMP. As to the method: In vitro kinase assay was conducted for BRD4 phosphorylation by AMPK (1 uM compound). Compounds MS231, and VS806 tested are depicted below.
Compounds MS231, VS806 and VS804 were tested with and without 100 uM AMP. ADP glo for BRD4 phosphorylation by AMPK with and without AMP was conducted. The addition of AMP enhanced the phosphorylation signal, with ADP production measured at 2 hours, 20 nM AMPK.

For a further assay, the target named is PKC beta (Homo sapiens, UniProt P05771). The note with it: PKC beta; read-out: Kd; cited from earlier work.
A further assay concerns the target PKCalpha (Homo sapiens, UniProt P17252). The note with it: PKC alpha; read-out: Kd; cited from earlier work.
The target of another assay is PKC delta (Homo sapiens, UniProt Q05655). As to conditions: PKC delta; read-out: Kd; cited from earlier work.
For another assay, the target named is PKC gamma (Homo sapiens, UniProt P05129). As to conditions: PKC gamma; read-out: Kd; cited from earlier work.
The subject of assay [1] is breast carcinoma cell lines MCF-7 and MDA-MB-231. The note with it: cited from earlier work.
The next assay concerns the target T1, PKC epsilon (Homo sapiens, UniProt Q02156).
T1 sequence (Q02156 1-737): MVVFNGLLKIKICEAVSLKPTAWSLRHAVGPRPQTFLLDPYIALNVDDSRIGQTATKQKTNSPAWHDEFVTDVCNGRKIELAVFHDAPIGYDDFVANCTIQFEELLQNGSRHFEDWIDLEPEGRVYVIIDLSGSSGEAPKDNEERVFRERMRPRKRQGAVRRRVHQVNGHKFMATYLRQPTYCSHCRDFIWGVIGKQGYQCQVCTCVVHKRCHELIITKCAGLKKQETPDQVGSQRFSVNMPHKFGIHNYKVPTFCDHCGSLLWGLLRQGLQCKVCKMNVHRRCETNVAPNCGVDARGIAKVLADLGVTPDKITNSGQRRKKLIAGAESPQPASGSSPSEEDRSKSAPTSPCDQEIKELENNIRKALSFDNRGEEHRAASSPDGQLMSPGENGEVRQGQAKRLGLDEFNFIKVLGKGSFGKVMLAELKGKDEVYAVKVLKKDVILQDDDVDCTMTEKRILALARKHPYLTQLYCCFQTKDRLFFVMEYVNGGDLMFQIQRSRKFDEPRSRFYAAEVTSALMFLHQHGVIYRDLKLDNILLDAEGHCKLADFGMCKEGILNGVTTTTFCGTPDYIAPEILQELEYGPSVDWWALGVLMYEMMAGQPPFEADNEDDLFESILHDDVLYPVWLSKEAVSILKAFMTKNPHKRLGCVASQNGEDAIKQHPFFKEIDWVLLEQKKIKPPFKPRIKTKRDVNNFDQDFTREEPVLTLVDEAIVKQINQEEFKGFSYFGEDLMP
As to conditions: PKC epsilon; read-out: Kd; cited from earlier work.

The target of the next assay is BRD4 (Abl) (Homo sapiens, UniProt O60885+P00519). As to the kind of experiment: tyrosine phosphorylation Abl-BRD4 (Millipore). The assay is classed as biochemical. As to conditions: relative to control DMSO. As to the method: Multi-functional molecules comprising a BRD4 localizing moiety and an Abl activator moiety were assayed for tyrosine phosphorylation activity (Millipore)(FIG. 91). […] DPH derived PHICS phosphorylation levels, and thus, Abl engagement, varied by attachment of the DPH derivative to the multifunctional chimeric molecule via orienting adaptor and linker (FIG. 92).

The target in the next assay is T2, DDR2 (Homo sapiens, UniProt Q16832).
T2 sequence (Q16832 22-855): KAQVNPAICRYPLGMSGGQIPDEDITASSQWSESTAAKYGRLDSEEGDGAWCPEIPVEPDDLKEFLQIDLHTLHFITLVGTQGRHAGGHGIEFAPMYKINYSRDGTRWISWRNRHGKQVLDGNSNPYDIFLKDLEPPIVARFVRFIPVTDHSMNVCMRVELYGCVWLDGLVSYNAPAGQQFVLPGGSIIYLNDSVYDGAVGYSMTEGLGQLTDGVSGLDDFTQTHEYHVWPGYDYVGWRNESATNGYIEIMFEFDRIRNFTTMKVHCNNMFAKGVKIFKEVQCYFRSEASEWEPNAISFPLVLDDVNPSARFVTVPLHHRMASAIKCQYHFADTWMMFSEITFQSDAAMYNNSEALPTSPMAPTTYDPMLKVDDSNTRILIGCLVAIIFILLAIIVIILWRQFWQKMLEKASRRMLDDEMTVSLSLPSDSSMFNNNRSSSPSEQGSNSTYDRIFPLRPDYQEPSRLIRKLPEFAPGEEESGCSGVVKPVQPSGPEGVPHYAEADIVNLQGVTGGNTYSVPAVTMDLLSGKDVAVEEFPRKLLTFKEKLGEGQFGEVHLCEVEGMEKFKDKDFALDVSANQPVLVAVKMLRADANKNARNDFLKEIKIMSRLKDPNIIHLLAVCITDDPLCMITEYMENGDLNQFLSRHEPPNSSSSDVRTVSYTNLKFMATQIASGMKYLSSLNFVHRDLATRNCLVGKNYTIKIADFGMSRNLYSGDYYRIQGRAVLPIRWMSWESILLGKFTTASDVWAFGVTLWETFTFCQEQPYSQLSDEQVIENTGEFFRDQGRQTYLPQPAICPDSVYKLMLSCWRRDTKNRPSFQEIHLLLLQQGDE
As to conditions: cited from earlier work.

The next assay concerns the target TIE2 (Homo sapiens, UniProt Q02763). The note with it: cited from earlier work.
Another assay addresses LYN [isoform a] (Homo sapiens, UniProt P07948). As to conditions: cited from earlier work.
Another assay deals with RET (Homo sapiens, UniProt P07949). As to conditions: cited from earlier work.
Sequence of RET (P07949 29-1114, species assumed): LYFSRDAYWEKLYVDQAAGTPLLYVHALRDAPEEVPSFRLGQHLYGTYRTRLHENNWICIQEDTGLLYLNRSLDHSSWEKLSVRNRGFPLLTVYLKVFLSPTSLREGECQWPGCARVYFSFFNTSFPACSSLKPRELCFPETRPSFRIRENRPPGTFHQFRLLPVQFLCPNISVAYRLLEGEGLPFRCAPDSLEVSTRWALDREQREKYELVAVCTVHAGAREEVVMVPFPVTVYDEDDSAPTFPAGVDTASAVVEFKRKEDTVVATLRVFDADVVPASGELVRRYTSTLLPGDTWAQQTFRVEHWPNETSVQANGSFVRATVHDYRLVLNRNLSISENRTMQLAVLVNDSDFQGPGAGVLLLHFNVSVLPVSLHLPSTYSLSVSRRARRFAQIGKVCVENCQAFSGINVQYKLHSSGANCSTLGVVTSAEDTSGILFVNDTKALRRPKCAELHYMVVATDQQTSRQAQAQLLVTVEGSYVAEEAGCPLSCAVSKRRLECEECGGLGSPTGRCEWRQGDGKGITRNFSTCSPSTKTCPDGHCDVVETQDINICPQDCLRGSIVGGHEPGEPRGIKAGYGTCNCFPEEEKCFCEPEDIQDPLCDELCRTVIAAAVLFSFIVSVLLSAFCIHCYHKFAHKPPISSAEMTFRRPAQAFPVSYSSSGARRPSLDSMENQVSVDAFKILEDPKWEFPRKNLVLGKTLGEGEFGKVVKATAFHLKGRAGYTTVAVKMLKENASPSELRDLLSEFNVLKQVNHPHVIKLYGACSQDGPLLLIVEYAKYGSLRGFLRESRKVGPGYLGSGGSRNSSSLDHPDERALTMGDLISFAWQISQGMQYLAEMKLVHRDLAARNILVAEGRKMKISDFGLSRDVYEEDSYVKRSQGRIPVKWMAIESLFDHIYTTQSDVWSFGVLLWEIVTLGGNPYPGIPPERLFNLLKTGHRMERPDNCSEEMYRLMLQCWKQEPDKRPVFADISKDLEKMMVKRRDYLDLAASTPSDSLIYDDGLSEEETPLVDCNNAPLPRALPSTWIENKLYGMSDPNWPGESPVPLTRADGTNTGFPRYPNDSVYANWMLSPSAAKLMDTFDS
The next assay addresses FYN [isoform a] (Homo sapiens, UniProt P06241). The note with it: cited from earlier work.
The target of a further assay is FGFR1 (Homo sapiens, UniProt P11362). As to conditions: cited from earlier work.
Sequence of FGFR1 (P11362 22-822, species assumed): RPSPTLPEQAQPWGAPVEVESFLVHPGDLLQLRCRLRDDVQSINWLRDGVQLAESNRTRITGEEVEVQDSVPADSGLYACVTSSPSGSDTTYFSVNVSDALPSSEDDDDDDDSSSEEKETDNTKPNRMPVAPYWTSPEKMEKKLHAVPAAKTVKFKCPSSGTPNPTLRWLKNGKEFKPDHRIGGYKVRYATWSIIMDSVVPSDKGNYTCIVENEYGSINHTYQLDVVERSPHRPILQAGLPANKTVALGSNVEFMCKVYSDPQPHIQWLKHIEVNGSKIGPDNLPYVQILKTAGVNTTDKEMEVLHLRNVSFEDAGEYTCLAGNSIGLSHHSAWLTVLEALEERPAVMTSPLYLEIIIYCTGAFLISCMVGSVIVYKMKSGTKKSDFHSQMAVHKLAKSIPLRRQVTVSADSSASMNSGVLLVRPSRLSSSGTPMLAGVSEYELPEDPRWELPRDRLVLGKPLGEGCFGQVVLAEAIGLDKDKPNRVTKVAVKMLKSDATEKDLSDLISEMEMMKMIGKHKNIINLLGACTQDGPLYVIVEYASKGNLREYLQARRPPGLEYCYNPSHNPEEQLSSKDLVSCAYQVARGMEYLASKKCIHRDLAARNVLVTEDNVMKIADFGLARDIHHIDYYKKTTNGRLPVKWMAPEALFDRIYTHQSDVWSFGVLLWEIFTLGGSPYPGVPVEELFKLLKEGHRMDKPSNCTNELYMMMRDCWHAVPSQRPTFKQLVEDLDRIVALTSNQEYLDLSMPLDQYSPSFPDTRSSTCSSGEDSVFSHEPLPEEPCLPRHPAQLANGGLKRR
The target of another assay is BTK (Homo sapiens, UniProt Q06187). As to conditions: cited from earlier work.
For a further assay, the target named is BRAF (Homo sapiens, UniProt P15056). The note with it: cited from earlier work.
The target in a further assay is PKC eta (Homo sapiens, UniProt P24723). The note with it: read-out: Kd; cited from earlier work.
Another assay has as its target PKCα (Homo sapiens, UniProt P17252). As to the kind of experiment: ADP-Glo kinase activation, CREBtide peptide. It is filed as biochemical. Set-up: GST; purchased SignalChem P61-18G. As to the method:
ADP-Glo assay was performed with PHICS (PKC) in a similar manner with some modifications as follows. In a 96 well plate (white, flat bottom), similar concentration series of PHICS (2.1, 2.2, 2.3, 2.4 and 2.5) were prepared using same kinase assay buffer and incubated with 2 ng of PKC, 0.2 μg/μL CREBtide peptide and 50 μM ATP for 1 hr at room temperature before incubation with ADP-Glo assay reagents.

The structures appear in SMILES notation.

Sequence of FYN [isoform a] (P06241 whole entry, canonical isoform): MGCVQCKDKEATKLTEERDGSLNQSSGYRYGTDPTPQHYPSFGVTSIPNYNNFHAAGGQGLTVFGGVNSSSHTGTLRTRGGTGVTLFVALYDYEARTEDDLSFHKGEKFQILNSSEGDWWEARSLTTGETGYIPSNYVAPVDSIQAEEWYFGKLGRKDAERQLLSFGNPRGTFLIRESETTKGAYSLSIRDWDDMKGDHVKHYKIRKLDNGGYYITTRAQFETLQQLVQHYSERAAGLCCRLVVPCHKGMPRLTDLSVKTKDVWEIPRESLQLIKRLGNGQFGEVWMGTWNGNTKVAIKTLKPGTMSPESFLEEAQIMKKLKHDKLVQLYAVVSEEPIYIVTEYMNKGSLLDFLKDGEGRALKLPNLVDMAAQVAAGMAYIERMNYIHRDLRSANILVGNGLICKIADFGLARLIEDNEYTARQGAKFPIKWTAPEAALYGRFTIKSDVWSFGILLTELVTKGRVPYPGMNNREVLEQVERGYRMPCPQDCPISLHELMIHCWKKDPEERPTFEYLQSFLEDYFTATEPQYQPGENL
Sequence of LYN [isoform a] (P07948 whole entry, canonical isoform): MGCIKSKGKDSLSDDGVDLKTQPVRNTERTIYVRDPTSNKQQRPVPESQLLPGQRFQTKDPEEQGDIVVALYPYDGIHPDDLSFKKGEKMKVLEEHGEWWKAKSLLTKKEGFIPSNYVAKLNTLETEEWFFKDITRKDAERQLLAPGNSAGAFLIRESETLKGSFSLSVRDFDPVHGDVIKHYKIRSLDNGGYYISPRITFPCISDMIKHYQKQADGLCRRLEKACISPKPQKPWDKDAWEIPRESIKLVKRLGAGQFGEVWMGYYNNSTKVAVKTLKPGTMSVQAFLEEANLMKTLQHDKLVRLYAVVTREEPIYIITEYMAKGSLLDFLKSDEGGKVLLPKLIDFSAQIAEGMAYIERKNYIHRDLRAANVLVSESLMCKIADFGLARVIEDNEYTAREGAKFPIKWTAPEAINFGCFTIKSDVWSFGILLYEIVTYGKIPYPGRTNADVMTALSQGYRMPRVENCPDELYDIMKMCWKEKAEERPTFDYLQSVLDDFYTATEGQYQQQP
Sequence of TIE2 (Q02763 23-1124, species assumed): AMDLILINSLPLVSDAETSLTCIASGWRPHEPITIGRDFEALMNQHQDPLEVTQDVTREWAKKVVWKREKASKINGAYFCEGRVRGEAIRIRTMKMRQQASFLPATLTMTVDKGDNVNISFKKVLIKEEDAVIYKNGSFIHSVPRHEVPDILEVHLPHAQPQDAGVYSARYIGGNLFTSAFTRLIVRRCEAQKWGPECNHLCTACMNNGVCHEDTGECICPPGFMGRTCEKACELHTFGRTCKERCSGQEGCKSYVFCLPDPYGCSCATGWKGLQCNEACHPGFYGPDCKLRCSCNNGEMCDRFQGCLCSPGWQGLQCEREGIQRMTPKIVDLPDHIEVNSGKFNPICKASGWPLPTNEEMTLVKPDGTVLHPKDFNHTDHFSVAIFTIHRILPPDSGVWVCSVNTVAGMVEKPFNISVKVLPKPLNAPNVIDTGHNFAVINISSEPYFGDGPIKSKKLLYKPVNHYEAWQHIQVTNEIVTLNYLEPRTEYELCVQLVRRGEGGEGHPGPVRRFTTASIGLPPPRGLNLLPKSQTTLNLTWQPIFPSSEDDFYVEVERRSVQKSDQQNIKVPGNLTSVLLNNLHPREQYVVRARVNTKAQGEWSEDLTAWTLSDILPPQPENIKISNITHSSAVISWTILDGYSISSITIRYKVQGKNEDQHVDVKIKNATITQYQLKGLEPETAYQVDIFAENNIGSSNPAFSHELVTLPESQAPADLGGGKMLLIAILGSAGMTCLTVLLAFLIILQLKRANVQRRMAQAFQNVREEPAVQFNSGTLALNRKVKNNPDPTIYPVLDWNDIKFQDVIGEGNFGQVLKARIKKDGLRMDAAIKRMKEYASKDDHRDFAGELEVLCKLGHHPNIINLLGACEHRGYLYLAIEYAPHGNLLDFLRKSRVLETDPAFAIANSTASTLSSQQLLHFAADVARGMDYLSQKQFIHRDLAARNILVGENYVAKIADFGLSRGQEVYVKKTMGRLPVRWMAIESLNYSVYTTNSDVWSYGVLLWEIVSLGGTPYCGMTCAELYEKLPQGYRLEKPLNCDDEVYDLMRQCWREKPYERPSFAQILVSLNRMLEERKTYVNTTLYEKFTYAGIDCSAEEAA

In the case of `Cc1sc2c(c1C)C(c1ccc(Cl)cc1)=N[C@@H](CC(=O)NCCOCCOCCOCCOCCC(=O)NCCOc1ccc(-c3cc4c(C(=O)O)c[nH]c4cc3Cl)cc1)c1nnc(C)n1-2` [VS806], the “effect of addition of AMP on BRD4 phosphorylation signal” value on BRD4 (AMPK) is “enhances the phosphorylation signal”.
Consider `Cc1sc2c(c1C)C(c1ccc(Cl)cc1)=N[C@@H](CC(=O)NCc1cn(CCCCCC(=O)NCCOc3ccc(-c4cc5c(C(=O)O)c[nH]c5cc4Cl)cc3)nn1)c1nnc(C)n1-2` [MS231], for which the “effect of addition of AMP on BRD4 phosphorylation signal” value on BRD4 (AMPK) was “enhances the phosphorylation signal”.
Regarding `CC(C)[C@H]1C(=O)N[C@H](CO)CCc2c[nH]c3cccc(c23)N1C`, the Kd at PKC beta was 6.1 nM; on PKCalpha, 11 nM; at PKC delta, 8.2 nM; at PKC gamma it was 19.4 nM; at PKC epsilon, 21.9 nM. In addition, in assay [1], the “antiproliferative activity against breast carcinoma” value is “inactive against breast carcinoma”.
Consider `Cc1sc2c(c1C)C(c1ccc(Cl)cc1)=NC(CC(=O)NCCOCCOCCOCCOCCC(=O)NC1=NN(c3ccc(Cl)c(Cl)c3)CC1)c1nnc(C)n1-2` (stereo not drawn) [VS801], for which, at BRD4 (Abl), the “tyrosine phosphorylation enzymatic activity” value is reported as “high tyrosine phosphorylation enzymatic activity”.
Take `Cc1ccc(C(=O)Nc2ccc(CN3CCN(C)CC3)c(C(F)(F)F)c2)cc1C#Cc1cnc2cccnn12` [Ponatinib]: the ka on DDR2 was 29800 M⁻¹ s⁻¹; at TIE2 it was 40200 M⁻¹ s⁻¹; at LYN [isoform a] it was 110000 M⁻¹ s⁻¹; at RET, 118000 M⁻¹ s⁻¹; on FYN [isoform a], 84900 M⁻¹ s⁻¹; at FGFR1, 17900 M⁻¹ s⁻¹. In addition, at BTK, the ka was 21500 M⁻¹ s⁻¹. Besides, the kd is 0.00014 s⁻¹ on DDR2; 0.00268 s⁻¹ on TIE2; 5.4e-05 s⁻¹ at LYN [isoform a]; 4.29e-05 s⁻¹ at RET; 8.93e-05 s⁻¹ at FYN [isoform a]; 0.000119 s⁻¹ at FGFR1. In addition, the kd on BTK was 0.0168 s⁻¹. Moreover, the “log(ka)” value is 4.47 on DDR2; 4.60 at TIE2; 5.04 on LYN [isoform a]; 5.07 at RET; 4.93 at FYN [isoform a]; 4.25 on FGFR1. Besides, the “log(kd)” value on DDR2 was −3.85; at TIE2, −2.57; on LYN [isoform a], −4.27; on RET, −4.37; on FYN [isoform a], −4.05; at FGFR1 it was −3.93.
In the case of `Cc1sc2c(c1C)C(c1ccc(Cl)cc1)=NC(CC(=O)NCCOCCOCCOCCOCCC(=O)NC1=NN(c3ccc(Cl)c(Cl)c3)CC1)c1nnc(C)n1-2` (stereo not drawn) [VS850], on BRD4 (Abl), the “tyrosine phosphorylation enzymatic activity” value was “inactive”.
With `CC(C)(C)c1nc(-c2cccc(NS(=O)(=O)c3c(F)cccc3F)c2F)c(-c2ccnc(N)n2)s1` [Dabrafenib], at BRAF, the ka was 467000 M⁻¹ s⁻¹ and the kd is 0.000288 s⁻¹.
As for `C=C(C)[C@@]12OC3(c4ccccc4)O[C@@H]1[C@@H]1C4OC4(CO)C[C@]4(O)C(=O)C(C)=C[C@H]4[C@@]1(O3)[C@H](C)[C@H]2OC(=O)CCCCc1ccccc1` (stereo partly drawn), the Kd at PKC beta is 0.51 nM; at PKCalpha it was 0.82 nM; on PKC delta, 2.17 nM; at PKC eta, 2.48 nM; at PKC gamma it was 0.8 nM; on PKC epsilon it was 3.13 nM.
As to `Cc1sc2c(c1C)C(c1ccc(Cl)cc1)=NC(CC(=O)NCCCCCC(=O)NCc1ccc(COc3ccc4c(c3)N(C)[C@@H](C(C)C)C(=O)N[C@H](CO)C4)cc1)c1nnc(C)n1-2` (stereo partly drawn) [(R)-PHICS2.3], the “PKC activation (ADP-Glo)” value at PKCα is listed as “still activated”.
